Results: patent US9758492B2, “IDO inhibitors” (Bristol-Myers Squibb Company, priority 2013, dated 2017)

What follows are compounds tested against T1, Human IDO1 (Homo sapiens, UniProt P14902) (assay: IDO Kynurenine Assay with Human IDO1/HEK293 Cells). Settings: read-out: HEK human IDO-1 (IC50).
T1 construct: expressed in transfected cells; host or cells: HEK293
Type: cell-based
Method: IDO Kynurenine Assay with Human IDO1/HEK293 Cells
Human IDO1/HEK293 cells were seeded at 10,000 cells per 50 uL per well with RPMI/phenol red free media contains 10% FBS in a 384-well black wall clear bottom tissue culture plate (Matrix Technologies LLC) 125 nL of certain concentration of compound was then added to each well using ECHO liquid handling systems. The cells were incubated for 20 hours in 37° C. incubator with 5% CO2.
The compound treatments were stopped by adding Trichloroacetic Acid (Sigma-Aldrich) to a final concentration at 0.2%. The cell plate was further incubated at 50° C. for 30 minute. The equal volume supernatant (20 uL) and 0.2% (w/v) Ehrlich reagent (4-dimethylaminobenzaldehyde, Sigma-Aldrich) in glacial acetic acid were mixed in a new clear bottom 384-well plate. This plate was then incubated at room temperature for 30 minute. The absorbance at 490 nm was measured on Envision plate reader.
Compound IC50 values were calculated using the counts of 500 nM of a reference standard treatment as one hundred percent inhibition, and counts of no compound but DMSO treatment as zero percent inhibition.

T1 sequence (P14902 whole entry): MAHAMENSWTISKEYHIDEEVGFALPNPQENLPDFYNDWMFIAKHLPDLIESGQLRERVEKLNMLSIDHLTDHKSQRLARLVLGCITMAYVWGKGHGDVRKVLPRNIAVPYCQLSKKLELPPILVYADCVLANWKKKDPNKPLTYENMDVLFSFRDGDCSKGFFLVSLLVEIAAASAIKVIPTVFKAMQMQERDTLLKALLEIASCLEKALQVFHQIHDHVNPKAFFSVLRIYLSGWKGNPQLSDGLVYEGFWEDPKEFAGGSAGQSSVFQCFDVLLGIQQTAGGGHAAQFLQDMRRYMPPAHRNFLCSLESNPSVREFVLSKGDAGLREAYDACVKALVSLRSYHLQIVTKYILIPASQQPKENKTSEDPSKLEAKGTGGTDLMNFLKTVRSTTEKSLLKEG

Going from `CC(C)CN(c1ccc(-c2cc(F)ccc2C(=O)O)cc1NC(=O)Nc1cncnc1)C1CCCCC1` [Example 397] to `CC(C)CN(c1cc(F)c(-c2cc(F)ccc2C(=O)O)cc1NC(=O)Nc1cncnc1)C1CCCCC1` [Example 486], the IC50 rises from 10 nM to 30 nM (3-fold).

Compared with `CCC(CC)N(CC(C)C)c1ccc(-c2ccccc2-c2nnn[nH]2)cc1NC(=O)Nc1ccc(C)cc1` [Example 444], `CCC(CC)N(CC(C)C)c1ccc(-c2ccccc2-c2nnn[nH]2)cc1NC(=O)Nc1ccccc1F` [Example 449] is 2.3-fold lower in IC50: 3.21 nM for the first, 1.41 nM for the second.

`Cc1ccc(NC(=O)Nc2cc(-c3ccccc3-c3nnn[nH]3)ccc2N(CC(C)C)[C@H]2CC[C@@H](C(F)(F)F)CC2)cc1` [Example 305, 1-(4-(isobutyl(4-(trifluoromethyl)cyclohexyl)amino)-2′-(1H-tetrazol-5-yl)-[1,1′-biphenyl]-3-yl)-3-(p-tolyl) urea] and `Cc1ccc(NC(=O)Nc2cc(-c3ccccc3-c3nnn[nH]3)ccc2N(CC(C)(F)F)C2CCCCC2)cc1` [Example 356, 1-(4-(cyclohexyl(2,2-difluoropropyl)amino)-2′-(1H-tetrazol-5-yl)-[1,1′-biphenyl]-3-yl)-3-(p-tolyl)urea] are within 1.5-fold of each other in IC50: 6 nM for the first, 4.06 nM for the second.

`CC(C)CN(c1cc(F)c(-c2cc(F)ccc2C(=O)O)cc1NC(=O)Nc1ccc2c(c1)OCO2)C1CCC(F)(F)CC1` [Example 531, 5′-(3-(Benzo[d][1,3]dioxol-5-yl)ureido)-4′-((4,4-difluorocyclohexyl)(isobutyl)amino)-2′,5-difluoro-[1,1′-biphenyl]-2-carboxylic acid] and `Cc1cc(NC(=O)Nc2cc(-c3cc(F)ccc3C(=O)O)c(F)cc2N(CC(C)C)C2CCC(F)(F)CC2)no1` [Example 518, 4′-((4,4-Difluorocyclohexyl)(isobutyl)amino)-2′,5-difluoro-5′-(3-(5-methylisoxazol-3-yl)ureido)-[1,1′-biphenyl]-2-carboxylic acid] are the same in IC50: 20 nM for the first, 20 nM for the second.

Compared with `CC(C)CN(c1ccc(-c2cc(F)ccc2C(=O)O)cc1NC(=O)Nc1ccc2nccnc2c1)C1CCCCC1` [Example 406], `CC(C)CN(c1cc(F)c(-c2cc(F)ccc2C(=O)O)cc1NC(=O)Nc1ccc2nccnc2c1)C1CCCCC1` [Example 403] is 3.3-fold lower in IC50: 7.59 nM for the first, 2.32 nM for the second.

First: Cc1ccc(C(=O)O)c(-c2ccc(N(CC(C)C)CC(C)C)c(NC(=O)Nc3ccccc3F)c2)c1 [Example 526, 4′-(Diisobutylamino)-3′-(3-(2-fluorophenyl)ureido)-5-methyl-[1,1′-biphenyl]-2-carboxylic acid]
Second: Cc1ccc(C(=O)O)c(-c2ccc(N(CC(C)C)CC(C)C)c(NC(=O)Nc3ccc(F)cc3F)c2)c1 [Example 528, 3′-(3-(2,4-Difluorophenyl)ureido)-4′-(diisobutylamino)-5-methyl-[1,1′-biphenyl]-2-carboxylic acid]
The IC50 of the first is 1.5-fold higher: 240 nM for the first, 160 nM for the second.

Going from `Cc1ccc(NC(=O)Nc2cc(-c3cc(F)ccc3C(=O)O)c(F)cc2N(CC(C)C)C2CCCCC2)cn1` [Example 394] to `Cc1ccc(NC(=O)Nc2cc(-c3cc(F)ccc3C(=O)O)c(F)cc2N(CC(C)C)C2CCCCC2)nn1` [Example 522, 4′-(Cyclohexyl(isobutyl)amino)-2′,5-difluoro-5′-(3-(6-methylpyridazin-3-yl)ureido)-[1,1′-biphenyl]-2-carboxylic acid], the IC50 rises from 7.9 nM to 1220 nM (150-fold). The first is the more potent here.

First: COC(C)(C)CCN(CCCC(F)(F)F)c1ccc(-c2ccccc2C(=O)O)cc1NC(=O)Nc1ccc(C)cc1 [Example 422]
Second: [2H]C([2H])(C(C)C)N(c1ccc(-c2ccccc2C(=O)O)cc1NC(=O)Nc1ccc(C)cc1)C([2H])([2H])C(C)C [Example 478]
The IC50 of the first is 150-fold higher: 1480 nM for the first, 10 nM for the second. The second is the more potent here.

First: CC(C)CN(CC(C)C)c1ccc(-c2ccccc2-c2nnn[nH]2)cc1NC(=O)Nc1ccc2c(c1)CCC2 [Example 458]
Second: CC(C)CN(CC(C)C)c1ccc(-c2ccccc2-c2nnn[nH]2)cc1NC(=O)Nc1ccc(C(C)C)cc1 [Example 455]
The IC50 of the first is 3.6-fold lower: 140 nM for the first, 510 nM for the second.

First: CCOc1ccc(NC(=O)Nc2cc(-c3ccccc3-c3nnn[nH]3)c(F)cc2N(CC(C)C)C2CCC(F)(F)CC2)cc1 [Example 539, 1-(4-((4,4-Difluorocyclohexyl)(isobutyl)amino)-6-fluoro-2′-(1H-tetrazol-5-yl)-[1,1′-biphenyl]-3-yl)-3-(4-ethoxyphenyl)urea]
Second: CC(C)CN(c1cc(F)c(-c2ccccc2-c2nnn[nH]2)cc1NC(=O)Nc1ccccc1F)C1CCC(F)(F)CC1 [Example 537, 1-(4-((4,4-Difluorocyclohexyl)(isobutyl)amino)-6-fluoro-2′-(1H-tetrazol-5-yl)-[1,1′-biphenyl]-3-yl)-3-(2-fluorophenyl)urea]
The IC50 of the first is 1.8-fold lower: 3.3 nM for the first, 6.08 nM for the second. The first is the more potent here.

Going from `[2H]C([2H])(C(C)C)N(c1ccc(-c2ccccc2-c2nnn[nH]2)cc1NC(=O)Nc1ccc(C)cc1)C([2H])([2H])C(C)C` [Example 424] to `CC(C)CN(CC(C)C)c1ccc(-c2ccccc2-c2nnn[nH]2)cc1NC(=O)Nc1cncnc1` [Example 391], the IC50 rises from 5.27 nM to 280 nM (53-fold). The first is the more potent here.

First: CC(C)CN(CC(C)C)c1ccc(-c2cccc(OC(F)(F)F)c2C(=O)O)cc1NC(=O)Nc1ccc(C#N)nc1 [Example 501]
Second: Cc1ccc(NC(=O)Nc2cc(-c3cccc(OC(F)(F)F)c3C(=O)O)ccc2N(CC(C)C)CC(C)C)cc1 [Example 495]
The IC50 of the first is 6.4-fold higher: 320 nM for the first, 50 nM for the second. The second is the more potent here.

Going from `CC(C)CN(c1ccc(-c2cc(F)ccc2C(=O)O)cc1NC(=O)Nc1ccc2nccn2c1)C1CCCCC1` [Example 407] to `Cc1ccc(NC(=O)Nc2cc(-c3cc(F)ccc3C(=O)O)ccc2N(CC(C)C)C2CCCCC2)cn1` [Example 399], the IC50 falls from 3110 nM to 20 nM (160-fold).

`CCC(CC)N(CC(C)C)c1ccc(-c2ccccc2C(=O)O)cc1NC(=O)Nc1ccccc1F` [Example 448] and `CCC(CC)N(CC(C)C)c1ccc(-c2cc(F)ccc2C(=O)O)cc1NC(=O)Nc1ccc(Cl)cc1F` [Example 442] are within 1.5-fold of each other in IC50: 1.56 nM for the first, 2.23 nM for the second.

Compared with `Cc1ccc(NC(=O)Nc2cc(-c3cc(C)ccc3C(=O)O)ccc2N(CC(C)C)CC(C)C)cc1` [Example 530, 4′-(Diisobutylamino)-5-methyl-3′-(3-(p-tolyl)ureido)-[1,1′-biphenyl]-2-carboxylic acid], `Cc1ccc(NC(=O)Nc2cc(-c3cc(Cl)ccc3C(=O)O)ccc2N(CC(C)C)CC(C)C)cc1` [Example 493] is 2.5-fold lower in IC50: 300 nM for the first, 120 nM for the second. The second is the more potent here.

First: CC(C)CN(c1ccc(-c2cc(F)ccc2C(=O)O)cc1NC(=O)Nc1ccc(C#N)nc1)C1CCCCC1 [Example 488]
Second: CC(C)CN(c1ccc(-c2cc(F)ccc2C(=O)O)cc1NC(=O)Nc1cnc2c(c1)ncn2C)C1CCCCC1 [Example 487]
The IC50 of the first is 300-fold lower: 3.46 nM for the first, 1050 nM for the second. The first is the more potent here.

`CC(C)CN(CC(C)C)c1ccc(-c2ccc(Cl)cc2C(=O)O)cc1NC(=O)Nc1ccc(Cl)cc1F` [Example 360, 4-Chloro-3′-(3-(4-chloro-2-fluorophenyl)ureido)-4′-(diisobutylamino)-[1,1′-biphenyl]-2-carboxylic acid] and `COc1cccc(-c2ccc(N(CC(C)C)CC(C)C)c(NC(=O)Nc3ccc(Cl)cc3F)c2)c1C(=O)O` [Example 500] are the same in IC50: 20 nM for the first, 20 nM for the second.

Compared with `COC[C@H](C)N(CCCC(F)(F)F)c1ccc(-c2ccccc2-c2nnn[nH]2)cc1NC(=O)Nc1ccc(C)cc1` [Example 423], `Cc1ccc(NC(=O)Nc2cc(-c3ccccc3-c3nnn[nH]3)ccc2N(CCCC(F)(F)F)C2CCCCC2)cc1` [Example 467] is 2-fold lower in IC50: 20 nM for the first, 10 nM for the second.

`CC(C)CN(c1c(F)cc(-c2cc(F)ccc2C(=O)O)cc1NC(=O)Nc1ccccc1F)C1CCCCC1` [Example 431] and `Cc1ccc(NC(=O)Nc2cc(-c3ccccc3C(=O)O)cc(F)c2N(CC(C)C)C2CCCCC2)cc1` [Example 437] are within 1.5-fold of each other in IC50: 3.76 nM for the first, 3.13 nM for the second.

Going from `CC(C)CN(c1cc(F)c(-c2cc(F)ccc2C(=O)O)cc1NC(=O)Nc1cnn(CC(F)(F)F)c1)C1CCC(F)(F)CC1` [Example 520, 4′-((4,4-Difluorocyclohexyl)(isobutyl)amino)-2′,5-difluoro-5′-(3-(1-(2,2,2-trifluoroethyl)-1H-pyrazol-4-yl)ureido)-[1,1′-biphenyl]-2-carboxylic acid] to `CC(C)CN(c1cc(F)c(-c2cc(F)ccc2C(=O)O)cc1NC(=O)Nc1ccccc1F)C1CCC(F)(F)CC1` [Example 538, 4′-((4,4-Difluorocyclohexyl)(isobutyl)amino)-2′,5-difluoro-5′-(3-(2-fluorophenyl)ureido)-[1,1′-biphenyl]-2-carboxylic acid], the IC50 falls from 4870 nM to 10 nM (490-fold). The second is the more potent here.

Compared with `Cc1cc(NC(=O)Nc2cc(-c3cc(F)ccc3C(=O)O)c(F)cc2N(CC(C)C)C2CCCCC2)on1` [Example 376], `CC(C)CN(c1ccc(-c2cc(F)ccc2C(=O)O)cc1NC(=O)Nc1ccc2nn(C)cc2c1)C1CCCCC1` [Example 409] is 51-fold higher in IC50: 2.15 nM for the first, 110 nM for the second. The first is the more potent here.

Going from `COCCN(c1ccc(-c2cc(F)ccc2C(=O)O)cc1NC(=O)Nc1ccc(C)cc1)C1CCCCC1` [Example 447] to `Cc1cc(NC(=O)Nc2cc(-c3ccccc3-c3nnn[nH]3)ccc2N(C2CC2)C2CC2)no1` [Example 509, 1-(4-(Dicyclopropylamino)-2′-(1H-tetrazol-5-yl)-[1,1′-biphenyl]-3-yl)-3-(5-methylisoxazol-3-yl)urea], the IC50 rises from 60 nM to 6630 nM (110-fold).

Compared with `CCC(CC)N(CC(C)C)c1ccc(-c2ccccc2-c2nnn[nH]2)cc1NC(=O)Nc1ccc(Cl)cc1F` [Example 441], `Cc1cc(NC(=O)Nc2cc(-c3cccc(C)c3C(=O)O)ccc2N(CC(C)C)CC(C)C)on1` [Example 535, 4′-(Diisobutylamino)-3-methyl-3′-(3-(3-methylisoxazol-5-yl)ureido)-[1,1′-biphenyl]-2-carboxylic acid] is 120-fold higher in IC50: 1.14 nM for the first, 140 nM for the second. The first is the more potent here.
